Assay results published in patent US8633245B2, “PAI-1 inhibitor” (Institute of Medicinal Molecular Design, Inc., priority 2008, dated 2014).

Biological target: T1, recombinant human PAI-1 (Homo sapiens, UniProt P05121)
T1 construct: purchased Molecular Innovations, Inc
Assay: Test Example 1: human PAI-1 inhibitory activity (tPA fluorogenic substrate, pH 7.5 Tris buffer)
Format: biochemical
Details: Tris buffer
Experimental: 50 mM Tris, 150 mM NaCl, 10 μg/ml BSA, 0.01% Tween80 (SIGMA-ALDRICH Corporation)

T1 sequence (P05121 24-402): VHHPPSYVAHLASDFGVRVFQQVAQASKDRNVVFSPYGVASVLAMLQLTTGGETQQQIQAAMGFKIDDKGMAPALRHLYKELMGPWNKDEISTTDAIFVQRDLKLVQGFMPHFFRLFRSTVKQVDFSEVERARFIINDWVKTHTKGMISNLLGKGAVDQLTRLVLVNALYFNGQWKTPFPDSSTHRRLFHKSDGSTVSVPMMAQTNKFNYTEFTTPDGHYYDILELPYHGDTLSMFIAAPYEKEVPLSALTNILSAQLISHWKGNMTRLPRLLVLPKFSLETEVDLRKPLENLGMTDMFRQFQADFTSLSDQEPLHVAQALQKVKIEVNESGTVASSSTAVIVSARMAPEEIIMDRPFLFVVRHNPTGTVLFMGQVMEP

SMILES	Inhibition Rate of PAI-1 Activity (%) (Compound Concentration 5 μM)	Inhibition Rate of PAI-1 Activity (%) (Compound Concentration 10 μM)	Inhibition Rate of PAI-1 Activity (%) (Compound Concentration 25 μM)	Inhibition Rate of PAI-1 Activity (%) (Compound Concentration 0.5 μM)	Inhibition Rate of PAI-1 Activity (%) (Compound Concentration 1 μM)
CC(C)(C)c1ccc(Oc2cccc(-c3ccc(OC(F)(F)F)cc3)c2C=CC(=O)O)cc1 [Compound 93]	51%	87%	94%		
Cc1cc(-c2ccc(OC(F)(F)F)cc2)cc(C)c1N(Cc1ccc(C(C)(C)C)cc1)C(=O)C(=O)O [Compound 152]	41%	88%	93%		
CC(C)(C)c1ccc(CN(C(=O)C(=O)O)c2ccc(C(F)(F)F)cc2-c2ccc(OC(F)(F)F)cc2)cc1 [Compound 169]	59%	91%	84%		
O=C(O)CCc1cc(-c2ccccc2)ccc1OCc1ccc(OC(F)(F)F)cc1 [Compound 53]	19%	32%	74%		
CCCCCOc1ccc(-c2ccc(OC(F)(F)F)cc2)cc1N(Cc1ccccc1)C(=O)C(=O)O [Compound 195]	77%	94%	93%		
CC(C)(C)c1ccc(COc2ccc(Oc3ccc(OC(F)(F)F)cc3)cc2C=CC(=O)O)cc1 [Compound 95]	28%	77%	96%		
O=C(O)C(=O)N(CCCCc1ccccc1)c1ccc(N2CCCCC2=O)c(-c2ccc(OC(F)(F)F)cc2)c1 [Compound 250]	83%	78%			
CC(C)(C)c1ccc(COc2ccc(-c3ccccc3)cc2CCC(=O)O)cc1 [Compound 32]	22%	47%	97%		
CC(C)(C)c1ccc(Oc2cc(Oc3ccc(OC(F)(F)F)cc3)ccc2/C=C/C(=O)O)cc1 [Compound 89]	46%	87%	95%		
O=C(O)C(=O)N(CCCCc1ccccc1)c1ccc(N2CCOCC2)c(-c2ccc(OC(F)(F)F)cc2)c1 [Compound 243]	42%	64%	89%		
CC(C)(OCc1ccc(-c2ccc(OC(F)(F)F)cc2)cc1Oc1ccc(C(C)(C)C)cc1)C(=O)O [Compound 111]	55%	88%	94%		
COc1ccc(-c2ccc(N(Cc3ccc(C(C)(C)C)cc3)C(=O)C(=O)O)cc2)cc1 [Compound 126]	16%	43%			
CC(C)(C)c1ccc(COc2ccc(-c3ccc(C(C)(C)C)cc3)cc2CCC(=O)O)cc1 [Compound 40]	22%	66%	>99%		
O=C(O)CCc1cc(-c2ccc(OC(F)(F)F)cc2)ccc1OCc1ccc(-c2ccccc2)cc1 [Compound 29]	21%	56%	88%		
COc1ccc(-c2ccc(OCc3ccc(C(C)(C)C)cc3)c(CCC(=O)O)c2)cc1 [Compound 38]	14%	34%	93%		
CC(C)(C)c1ccc(N(C(=O)C(=O)O)c2cccc(Oc3ccc(OC(F)(F)F)cc3)c2)cc1 [Compound 170]	38%	73%	94%		
CC(C)(C)c1ccc(CN(C(=O)C(=O)O)c2ccc(-c3ccccc3OC(F)(F)F)cc2)cc1 [Compound 201]	64%	89%	82%		
CC(C)(C)c1ccc(COc2ccc(-c3ccc(C(F)(F)F)cc3)cc2CCC(=O)O)cc1 [Compound 36]	23%	60%	99%		
O=C(O)/C=C/c1cc(-c2ccc(OC(F)(F)F)cc2)ccc1OCc1ccccc1 [Compound 24]		11%	64%		
Cc1cc(-c2ccc(OC(F)(F)F)cc2)cc(N(Cc2ccc(C(C)(C)C)cc2)C(=O)C(=O)O)c1 [Compound 178]	56%	88%	88%		
CC(C)(C)c1ccc(CN(C(=O)C(=O)O)c2ccc(OCc3ccc(OC(F)(F)F)cc3)cc2)cc1 [Compound 616]	49%	83%	96%		
CC(C)(C)c1ccc(CN(C(=O)C(=O)O)c2ccc(-c3ccc(OC(F)(F)F)cc3)cc2)cc1 [Compound 133]	80%	92%			

SMILES	Inhibition Rate of PAI-1 Activity (%) (Compound Concentration 5 μM)	Inhibition Rate of PAI-1 Activity (%) (Compound Concentration 10 μM)	Inhibition Rate of PAI-1 Activity (%) (Compound Concentration 25 μM)	Inhibition Rate of PAI-1 Activity (%) (Compound Concentration 0.5 μM)	Inhibition Rate of PAI-1 Activity (%) (Compound Concentration 1 μM)
CCCCc1ccc(-c2ccc(OCc3ccc(C(C)(C)C)cc3)c(CCC(=O)O)c2)cc1 [Compound 43]	29%	66%	94%		
CC(C)(C)c1ccc(-c2ccc(N(Cc3ccc(C(F)(F)F)cc3)C(=O)C(=O)O)cc2)cc1 [Compound 205]	50%	80%	98%		
COc1ccc(-c2ccc(OCc3ccc(C(C)(C)C)cc3)c(/C=C/C(=O)O)c2)cc1 [Compound 37]	23%	47%	84%		
Cc1cc(C)cc(CN(C(=O)C(=O)O)c2ccc(-c3ccc(OC(F)(F)F)cc3)cc2)c1 [Compound 123]	27%	62%			
O=C(O)C(=O)N(Cc1ccccc1)c1c(Cl)cc(-c2ccc(OC(F)(F)F)cc2)cc1Cl [Compound 180]	19%	36%	71%		
CN(c1ccc(OC(F)(F)F)cc1)c1ccc(OCc2ccc(C(C)(C)C)cc2)c(CCC(=O)O)c1 [Compound 417]	44%	79%	98%		
CCCOc1ccc(-c2ccc(OC(F)(F)F)cc2)cc1N(CCCCc1ccccc1)C(=O)C(=O)O [Compound 236]	61%	86%	95%		
CC(C)(C)c1ccc(COc2cc(-c3ccc(OC(F)(F)F)cc3)cc(O)c2OCC(=O)O)cc1 [Compound 546]	61%			4%	14%
CC(C)(C)c1ccc(CN(C(=O)C(=O)O)c2ccc(-c3ccc(Cl)cc3)cc2)cc1 [Compound 135]		6%	67%		
CC(C)(C)c1ccc(CN(C(=O)C(=O)O)c2ccccc2OCc2ccc(OC(F)(F)F)cc2)cc1 [Compound 620]	41%	77%	95%		
CC(C)(C)c1ccc(COc2ccc(-c3ccc(OC(F)(F)F)cc3)cc2COCC(=O)O)cc1 [Compound 107]	48%	85%	97%		
CC(C)(C)c1ccc(CN(C(=O)C(=O)O)c2ccc(-c3ccc(OC(F)(F)F)cc3)cc2OC(F)(F)F)cc1 [Compound 151]	35%	80%	90%		
CC(C)(C)c1ccc(COc2c(Cl)cc(-c3ccc(OC(F)(F)F)cc3)cc2C=CC(=O)O)cc1 [Compound 91]	30%	67%	96%		
Cc1cc(C)cc(COc2ccc(-c3ccc(OC(F)(F)F)cc3)cc2CCC(=O)O)c1 [Compound 59]	25%	53%	77%		
CC(C)(C)c1ccc(COc2ccc(-c3ccc(F)cc3)cc2CCC(=O)O)cc1 [Compound 34]	24%	53%	99%		
CC(C)Oc1ccc(N(CCCCc2ccccc2)C(=O)C(=O)O)cc1-c1ccc(OC(F)(F)F)cc1 [Compound 248]	60%	89%	96%		
CC(C)(C)c1ccc(CN(C(=O)C(=O)O)c2ccc(-c3ccc(C#N)cc3)cc2)cc1 [Compound 149]		3%	34%		
CC(C)(C)c1ccc(COc2ccc(-c3ccccc3)cc2/C=C/C(=O)O)cc1 [Compound 31]	21%	49%	89%		
O=C(O)CCc1cc(-c2ccc(OC(F)(F)F)cc2)ccc1Oc1ccc(OC(F)(F)F)cc1 [Compound 16]	23%	46%	96%		
CC(C)(C)c1ccc(-c2ccc(OCc3ccccc3OC(F)(F)F)c(CCC(=O)O)c2)cc1 [Compound 67]	37%	70%	94%		
CC(C)c1ccc(Oc2ccc(/C=C\C(=O)O)c(Oc3ccc(C(C)C)cc3)c2)cc1 [Compound 74]	13%	53%	96%		
CC(C)(C)c1ccc(COc2ccc(-c3ccc4c(c3)OCO4)cc2CC(=O)O)cc1 [Compound 10]	32%	65%	>99%		
